# Reference: PMC11002876, “KcsA-Kv1.x chimeras with complete ligand-binding sites provide improved predictivity for screening selective Kv1.x blockers” (The Journal of Biological Chemistry, 2024)
# Where a SMILES comes first, the peptide text is derived from it.
# Biological target: T1, KcsA-Kv1.1 T+F chimera (Streptomyces lividans, UniProt P0A334, R52A/G53E/A54E/P55A/G56E/A57S/Q58H/L59F/I60S/T61S/Y62I/R64D/L81M)
# T1 sequence (P0A334 1-160 R52A/G53E/A54E/P55A/G56E/A57S/Q58H/L59F/I60S/T61S/Y62I/R64D/L81M): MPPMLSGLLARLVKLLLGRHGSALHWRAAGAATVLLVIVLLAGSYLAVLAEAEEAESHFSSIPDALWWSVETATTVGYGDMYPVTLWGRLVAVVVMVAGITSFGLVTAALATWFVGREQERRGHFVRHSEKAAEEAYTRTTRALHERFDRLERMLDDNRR
# Experiment: Phage ELISA-binding assay, KcsA-Kv1.1 T+F
# Parameters: species or system human Kv1.1 turret and filter in Streptomyces lividans KcsA
# Settings: toxin displayed on M13 phage; Fig. 8D
# Experimental: Phage display test solutions were prepared according to routine phage display protocols ([62]). Phosphorylated and annealed oligonucleotides encoding the peptide construct were ligated into linearized pAS62 phagemid vector (https://patents.google.com/patent/WO2022144560A1/en) at a vector/insert ratio of 1:3. The final phagemid construct harbored a signal sequence followed by the peptide of interest, a linker sequence ([…]), and the C-terminal part of the P3 coat protein (amino acids: 216-424 of NP_510891.1). Chemically competent XL1-Blue E. coli cells (2022249, Agilent) were transformed with the ligation product and then streaked onto ampicillin (100 μg/ml) containing LB/Amp plates and incubated for 16 h at 37 °C. A few clones were sequenced, and a single colony with confirmed target sequence was inoculated into 3 ml 2 YT medium supplemented with 100 μg/ml ampicillin and incubated at 37 °C until the culture reached midlog phase. The culture was infected with M13KO7 helper phage (N0315S, New England Biolabs) (phage/cell ratio 10:1) and was incubated for 30 min at 37 °C. The 3 ml culture was transferred into 200 ml 2YT medium, supplemented with 100 μg/ml ampicillin and 25 μg/ml kanamycin, and incubated overnight at 37 °C. The overnight cell culture (200 ml) was pelleted by centrifugation at 8000g for 10 min in 400 ml centrifuge tubes at 4 °C. […] The particle concentrations of phage solutions were determined using a NanoDrop One C (Thermo Fisher Scientific) spectrophotometer. The phage particle concentration was assessed according to the formula: (A268–A320) × 5 × 10^12 particles/ml ([62]). […]
# Phage stock solutions were diluted to working concentration with phage resuspension buffer supplemented with 2 mM DDM. […] Following blocking, the wells were washed 4× with washing buffer (300 μl TBS-Tween, 0.1% v/v) using a Wellwash Versa microplate washer (Thermo Fisher Scientific); then 50 μl phage solution (in TBS-BSA-Tween, 0.1% v/v, 2 mM DDM) at determined phage concentration was added to the wells and incubated for 1 h at room temperature on a horizontal shaker. […]
row,SMILES,"phage binding to KcsA-Kv1.1 T+F, in words"
1,"CC[C@H](C)[C@H](NC(=O)[C@H](CCC(=O)O)NC(=O)[C@@H](NC(=O)CN)C(C)C)C(=O)N[C@@H](CC(N)=O)C(=O)N[C@H](C(=O)N[C@@H](CCCCN)C(=O)N[C@H]1CSSC[C@@H]2NC(=O)[C@H](CCCCN)NC(=O)CNC(=O)[C@H](Cc3ccccc3)NC(=O)[C@H](CCCNC(=N)N)NC(=O)[C@H](CCSC)NC(=O)CNC(=O)[C@H](C)NC(=O)[C@H](CC(=O)O)NC(=O)[C@H](CCCCN)NC(=O)[C@@H]3CSSC[C@@H](C(=O)N[C@H](C(=O)N4CCC[C@H]4C(=O)N[C@@H](CCCCN)C(=O)O)[C@@H](C)O)NC(=O)[C@H](Cc4c[nH]cn4)NC(=O)[C@H](CSSC[C@H](NC(=O)[C@H](CCC(N)=O)NC(=O)[C@@H]4CCCN4C(=O)[C@H](CO)NC(=O)CNC(=O)[C@H](CO)NC1=O)C(=O)N[C@@H](CC(C)C)C(=O)N[C@@H](CCCCN)C(=O)N1CCC[C@H]1C(=O)N3)NC(=O)[C@H](CCCCN)NC(=O)[C@H](CCCNC(=N)N)NC(=O)[C@H](CC(N)=O)NC(=O)[C@H](CCSC)NC2=O)C(C)C [KTX1, Kaliotoxin-1]",ShK > KTX1
2,"CC[C@H](C)[C@@H]1NC(=O)[C@@H]2CSSC[C@H](NC(=O)[C@H](CO)NC(=O)[C@@H](N)C(C)C)C(=O)N[C@@H]([C@@H](C)O)C(=O)NCC(=O)N[C@@H](CO)C(=O)N[C@@H](CCCCN)C(=O)N[C@@H](CC(=O)O)C(=O)N[C@@H](CSSC[C@@H](C(=O)N[C@@H](CCCCN)C(=O)N[C@H]3CSSC[C@@H](C(N)=O)NC(=O)CNC(=O)[C@H](Cc4ccc(O)cc4)NC3=O)NC(=O)[C@H](CO)NC(=O)[C@H](CCCCN)NC(=O)[C@H](CC(N)=O)NC1=O)C(=O)N[C@@H](Cc1ccc(O)cc1)C(=O)N[C@@H](C)C(=O)N1CCC[C@H]1C(=O)N[C@H]1CSSC[C@H](NC(=O)CNC(=O)[C@H]([C@@H](C)O)NC(=O)[C@H](CCC(N)=O)NC(=O)[C@H](CCCCN)NC(=O)[C@H](CCCNC(=N)N)NC1=O)C(=O)N1CCC[C@H]1C(=O)N[C@@H](CC(N)=O)C(=O)N[C@@H](C)C(=O)N[C@@H](CCCCN)C(=O)N2 [MTX, Maurotoxin] (HELM PEPTIDE1{V.S.C.T.G.S.K.D.C.Y.A.P.C.R.K.Q.T.G.C.P.N.A.K.C.I.N.K.S.C.K.C.Y.G.C.[am]}$PEPTIDE1,PEPTIDE1,3:R3-24:R3|PEPTIDE1,PEPTIDE1,9:R3-29:R3|PEPTIDE1,PEPTIDE1,13:R3-19:R3|PEPTIDE1,PEPTIDE1,31:R3-34:R3$$$V2.0; N-terminus and C-terminus assumed)",negligible binding
3,"CC[C@H](C)[C@@H]1NC(=O)[C@@H](NC(=O)[C@H](CO)NC(=O)[C@@H](N)CCCNC(=N)N)CSSC[C@@H](C(=O)O)NC(=O)[C@H]([C@@H](C)O)NC(=O)CNC(=O)[C@@H]2CSSC[C@@H]3NC(=O)[C@H](CCC(N)=O)NC(=O)[C@H](Cc4ccccc4)NC(=O)[C@H](C)NC(=O)[C@H]([C@@H](C)O)NC(=O)[C@H](CSSC[C@H](NC(=O)[C@H](Cc4ccccc4)NC(=O)[C@H](CO)NC(=O)[C@H](CC(C)C)NC(=O)[C@H](CCCNC(=N)N)NC(=O)[C@H](Cc4ccc(O)cc4)NC(=O)[C@H](CCCCN)NC(=O)[C@H](CCSC)NC(=O)[C@H](CO)NC(=O)[C@H](Cc4c[nH]cn4)NC(=O)[C@H](CCCCN)NC3=O)C(=O)N[C@@H](CCCNC(=N)N)C(=O)N[C@@H](CCCCN)C(=O)N[C@@H]([C@@H](C)O)C(=O)N2)NC(=O)[C@H](CCCNC(=N)N)NC(=O)[C@H](CO)NC(=O)[C@H](CCCCN)NC(=O)[C@@H]2CCCN2C(=O)[C@H]([C@@H](C)CC)NC(=O)[C@H]([C@@H](C)O)NC(=O)[C@H](CC(=O)O)NC1=O [ShK, Stichodactyla toxin]",ShK > KTX1
